Holding throughout (format): biochemical
Test [1] concerns the target Tyk2 (Homo sapiens, UniProt P29597). The experiment in a line: Detection of enzyme activity inhibition of JAK kinases (ULight-JAK substrate, Eu-labeled antibody): Tyk2. As to conditions: ATP 10 μM, substrate 50 nM, 1 hour reaction at room temperature; read-out: Tyk2 half-maximum inhibitory concentration (IC50). The procedure:
(§1) Test Example 1: Detection of Enzyme Activity Inhibition of Small Molecule Inhibitors of JAK Kinases
(§2) Kinase reaction buffer: The kinase reaction buffer was prepared with the following components: 50 mM HEPES, pH 7.5, 1 mM EGTA, 10 mM MgCl2, 2 mM DTT, and 0.01% Tween20. 1× test buffer: A test buffer was prepared, and the 10× test buffer was diluted with deionized water (deionized water: test buffer=9:1) to obtain the 1× test buffer. 4× kinase solution: JAK kinase was diluted with a kinase reaction buffer to a final concentration of 4× (JAK1:80 nM, JAK2/JAK3/Tyk2:4 nM). 4× substrate solution: ULight™-JAK (Tyr1023) substrate was diluted with the kinase reaction buffer to 200 nM (final concentration: 50 nM). 4×ATP solution: ATP was diluted with the kinase reaction buffer to a final concentration of 4× (JAK1:160 μM, JAK2/JAK3/Tyk2: 40 μM). 4× test compound solution: The compounds to be tested were dissolved in DMSO to prepare 10 mM stock solutions, which were diluted to have the desired concentrations through 3-fold gradient dilution, 10 concentrations were set for each compound, and final concentrations of the test compounds ranged from 10 μM to 0.5 nM. 4× enzyme reaction termination solution: EDTA was dissolved in a 1× test buffer to 40 mM (final concentration of EDTA: 10 mM). 4× test antibody solution: Eu-labeled test antibodies (anti-phosphotyrosine (PT66)) were diluted with 1× test buffer to 8 nM (final concentration of the antibodies: 2 nM).
(§3) 2.5 μL of the 4× kinase solution and 2.5 μL of each of the 4× test compound solutions having different concentrations were added into a 384-well microwell plate sequentially, with 2 duplicate wells set for each concentration, and an enzyme solution blank control group and a negative control group (DMSO group) were also provided. The 384-well plate was oscillated to mix the enzyme and the compound uniformly, centrifuged at 1000 rpm for 1 minute, and incubated at room temperature for 60 minutes. 2.5 μL of the 4× substrate solution was added into the 384-well plate, and centrifuged at 1000 rpm for 1 minute. 2.5 μL of the 4×ATP solution was added into the 384-well plate, and centrifuged at 1000 rpm for 1 minute to start the enzyme reaction. JAK1 reacted at room temperature for 2 hours, and JAK2/JAK3/Tyk2 reacted at room temperature for 1 hour. The final concentration of each component in the JAK1 reaction was: JAK1:20 nM; substrate: 50 nM; and ATP: 40 μM. The final concentrations of the test compounds ranged from 10 μM to 0.5 nM. The final concentration of each component in the JAK2/JAK3/Tyk2 reaction was: JAK2: 1 nM; substrate: 50 nM; and ATP: 10 μM. The final concentrations of the test compounds ranged from 10 μM to 0.5 nM. After the enzyme reaction ended, 5 μL of the 4× enzyme reaction termination solution was added into each well of the 384-well plate, centrifuged at 1000 rpm for 1 minute, and incubated at room temperature for 5 minutes. 5 μL of the 4× test antibody solution (final concentration of the test antibodies was 2 nM) was added into each well of the 384-well plate, centrifuged at 1000 rpm for 1 minute, and incubated at room temperature for 1 hour. After incubation of the antibodies, a signal value of each well was measured with Envision plate reader.
(§4) Assuming that an inhibition rate of the enzyme solution blank control group was 100% and an inhibition rate of the negative control group (DMSO group) was 0%, an inhibition rate corresponding to each concentration was calculated. Nonlinear regression analysis was performed on the concentration logarithm values and corresponding percentage inhibition rates of the test compounds in GraphPad Prism software to obtain the half-maximum inhibitory concentrations (IC50) of the test compounds.

The target in test [2] is JAK2 (Homo sapiens, UniProt O60674). The experiment in a line: Detection of enzyme activity inhibition of JAK kinases (ULight-JAK substrate, Eu-labeled antibody): JAK2. As to conditions: JAK2 1 nM, ATP 10 μM, substrate 50 nM, 1 hour reaction at room temperature; read-out: JAK2 half-maximum inhibitory concentration (IC50). The procedure:
as §1, §2, §3, §4

Test [3] addresses T1, JAK3 (Homo sapiens, UniProt P52333).
T1 sequence (P52333 1-1124): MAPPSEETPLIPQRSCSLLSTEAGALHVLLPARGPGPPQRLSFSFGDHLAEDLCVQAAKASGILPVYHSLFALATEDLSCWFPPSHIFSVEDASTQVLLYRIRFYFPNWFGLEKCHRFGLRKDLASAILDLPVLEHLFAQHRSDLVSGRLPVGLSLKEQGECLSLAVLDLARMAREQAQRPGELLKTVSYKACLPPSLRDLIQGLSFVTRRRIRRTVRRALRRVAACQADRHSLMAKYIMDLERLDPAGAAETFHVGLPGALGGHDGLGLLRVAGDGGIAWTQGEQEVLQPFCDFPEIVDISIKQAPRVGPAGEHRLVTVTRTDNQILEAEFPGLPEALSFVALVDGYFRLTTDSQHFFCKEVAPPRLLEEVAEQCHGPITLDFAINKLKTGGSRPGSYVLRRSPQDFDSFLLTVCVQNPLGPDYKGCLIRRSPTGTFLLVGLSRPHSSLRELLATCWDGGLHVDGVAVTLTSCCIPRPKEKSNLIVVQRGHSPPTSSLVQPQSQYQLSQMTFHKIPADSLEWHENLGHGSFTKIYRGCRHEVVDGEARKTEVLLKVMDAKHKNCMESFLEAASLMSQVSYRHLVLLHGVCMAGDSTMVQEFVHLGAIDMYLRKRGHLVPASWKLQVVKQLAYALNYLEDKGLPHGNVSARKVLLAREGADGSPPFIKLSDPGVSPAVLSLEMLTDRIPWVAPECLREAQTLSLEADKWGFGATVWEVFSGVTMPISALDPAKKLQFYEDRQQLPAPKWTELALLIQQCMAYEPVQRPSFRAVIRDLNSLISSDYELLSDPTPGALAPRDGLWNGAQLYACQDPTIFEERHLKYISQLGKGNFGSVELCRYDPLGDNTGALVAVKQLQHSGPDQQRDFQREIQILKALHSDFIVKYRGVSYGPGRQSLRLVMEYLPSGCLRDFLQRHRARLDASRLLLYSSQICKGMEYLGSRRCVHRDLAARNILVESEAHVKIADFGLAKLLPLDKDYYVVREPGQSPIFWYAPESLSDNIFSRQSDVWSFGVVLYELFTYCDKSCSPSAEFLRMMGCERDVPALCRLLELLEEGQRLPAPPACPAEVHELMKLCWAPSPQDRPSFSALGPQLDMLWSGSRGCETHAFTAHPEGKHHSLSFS
The experiment in a line: Detection of enzyme activity inhibition of JAK kinases (ULight-JAK substrate, Eu-labeled antibody): JAK3. The settings on record: ATP 10 μM, substrate 50 nM, 1 hour reaction at room temperature; read-out: JAK3 half-maximum inhibitory concentration (IC50). The procedure:
as §1, §2, §3, §4

In test [4] the target is JAK1 (Homo sapiens, UniProt P23458). The experiment in a line: Detection of enzyme activity inhibition of JAK kinases (ULight-JAK substrate, Eu-labeled antibody): JAK1. As to conditions: JAK1 20 nM, ATP 40 μM, substrate 50 nM, 2 hours reaction at room temperature; read-out: JAK1 half-maximum inhibitory concentration (IC50). The procedure:
as §1, §2, §3, §4

Molecules are shown by their SMILES.

Chain of Tyk2 (P29597 whole entry): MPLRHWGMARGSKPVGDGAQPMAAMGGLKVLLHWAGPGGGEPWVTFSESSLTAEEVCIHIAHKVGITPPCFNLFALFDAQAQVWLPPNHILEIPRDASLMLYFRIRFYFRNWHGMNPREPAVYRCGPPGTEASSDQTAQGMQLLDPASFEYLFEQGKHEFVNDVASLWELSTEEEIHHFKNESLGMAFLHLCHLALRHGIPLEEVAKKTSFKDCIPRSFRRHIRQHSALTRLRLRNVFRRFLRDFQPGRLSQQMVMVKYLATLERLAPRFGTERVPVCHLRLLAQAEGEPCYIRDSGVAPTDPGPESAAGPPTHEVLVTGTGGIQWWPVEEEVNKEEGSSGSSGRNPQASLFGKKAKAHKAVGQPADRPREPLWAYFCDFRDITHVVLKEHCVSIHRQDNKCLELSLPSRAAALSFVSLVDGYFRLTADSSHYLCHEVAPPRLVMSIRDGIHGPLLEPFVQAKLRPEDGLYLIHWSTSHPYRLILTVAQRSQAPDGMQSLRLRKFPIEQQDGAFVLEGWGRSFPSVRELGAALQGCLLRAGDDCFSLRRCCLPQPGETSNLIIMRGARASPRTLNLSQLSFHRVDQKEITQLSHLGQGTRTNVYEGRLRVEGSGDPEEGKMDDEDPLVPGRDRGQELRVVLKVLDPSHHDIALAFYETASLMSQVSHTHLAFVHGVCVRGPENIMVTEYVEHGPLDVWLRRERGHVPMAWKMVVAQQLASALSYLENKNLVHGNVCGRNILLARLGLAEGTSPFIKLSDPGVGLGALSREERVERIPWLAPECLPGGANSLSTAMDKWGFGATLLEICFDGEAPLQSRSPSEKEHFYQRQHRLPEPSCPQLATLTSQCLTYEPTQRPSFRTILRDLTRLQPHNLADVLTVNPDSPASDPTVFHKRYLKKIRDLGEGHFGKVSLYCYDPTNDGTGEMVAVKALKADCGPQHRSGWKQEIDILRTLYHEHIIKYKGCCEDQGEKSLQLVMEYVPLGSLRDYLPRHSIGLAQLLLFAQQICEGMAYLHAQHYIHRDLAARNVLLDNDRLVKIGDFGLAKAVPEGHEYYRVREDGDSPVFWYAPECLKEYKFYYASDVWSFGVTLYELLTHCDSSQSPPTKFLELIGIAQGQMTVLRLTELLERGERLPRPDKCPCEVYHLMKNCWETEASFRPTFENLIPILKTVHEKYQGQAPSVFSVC
Chain of JAK1 (P23458 whole entry): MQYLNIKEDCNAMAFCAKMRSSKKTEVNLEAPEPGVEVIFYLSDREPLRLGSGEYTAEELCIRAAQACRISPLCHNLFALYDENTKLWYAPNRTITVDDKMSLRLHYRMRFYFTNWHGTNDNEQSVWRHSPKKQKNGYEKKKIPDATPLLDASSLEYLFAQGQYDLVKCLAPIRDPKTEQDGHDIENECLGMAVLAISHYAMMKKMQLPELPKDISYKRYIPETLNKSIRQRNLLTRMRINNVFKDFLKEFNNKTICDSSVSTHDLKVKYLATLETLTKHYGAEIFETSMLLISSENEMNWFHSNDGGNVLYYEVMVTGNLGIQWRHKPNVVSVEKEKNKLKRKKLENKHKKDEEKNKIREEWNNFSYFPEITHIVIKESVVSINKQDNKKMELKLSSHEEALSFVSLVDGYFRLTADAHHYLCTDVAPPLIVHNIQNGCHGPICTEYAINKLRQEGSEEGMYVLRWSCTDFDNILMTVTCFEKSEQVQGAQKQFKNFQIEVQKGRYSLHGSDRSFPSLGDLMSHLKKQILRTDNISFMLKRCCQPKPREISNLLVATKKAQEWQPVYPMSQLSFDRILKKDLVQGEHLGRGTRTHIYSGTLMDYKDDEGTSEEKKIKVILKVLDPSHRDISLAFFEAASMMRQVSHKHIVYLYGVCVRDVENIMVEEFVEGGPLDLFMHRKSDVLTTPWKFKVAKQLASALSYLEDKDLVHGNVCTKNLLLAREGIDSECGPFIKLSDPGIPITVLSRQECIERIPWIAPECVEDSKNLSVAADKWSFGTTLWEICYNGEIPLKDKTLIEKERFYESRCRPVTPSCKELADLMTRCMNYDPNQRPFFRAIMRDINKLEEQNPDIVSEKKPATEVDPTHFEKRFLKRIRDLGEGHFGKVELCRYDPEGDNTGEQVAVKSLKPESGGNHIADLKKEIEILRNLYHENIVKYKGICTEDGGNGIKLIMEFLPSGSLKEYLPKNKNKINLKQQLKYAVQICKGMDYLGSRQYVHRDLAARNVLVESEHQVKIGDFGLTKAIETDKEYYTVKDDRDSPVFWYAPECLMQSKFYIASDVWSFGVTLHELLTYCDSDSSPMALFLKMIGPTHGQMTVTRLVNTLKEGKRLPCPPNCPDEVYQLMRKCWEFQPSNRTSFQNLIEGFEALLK
Chain of JAK2 (O60674 whole entry): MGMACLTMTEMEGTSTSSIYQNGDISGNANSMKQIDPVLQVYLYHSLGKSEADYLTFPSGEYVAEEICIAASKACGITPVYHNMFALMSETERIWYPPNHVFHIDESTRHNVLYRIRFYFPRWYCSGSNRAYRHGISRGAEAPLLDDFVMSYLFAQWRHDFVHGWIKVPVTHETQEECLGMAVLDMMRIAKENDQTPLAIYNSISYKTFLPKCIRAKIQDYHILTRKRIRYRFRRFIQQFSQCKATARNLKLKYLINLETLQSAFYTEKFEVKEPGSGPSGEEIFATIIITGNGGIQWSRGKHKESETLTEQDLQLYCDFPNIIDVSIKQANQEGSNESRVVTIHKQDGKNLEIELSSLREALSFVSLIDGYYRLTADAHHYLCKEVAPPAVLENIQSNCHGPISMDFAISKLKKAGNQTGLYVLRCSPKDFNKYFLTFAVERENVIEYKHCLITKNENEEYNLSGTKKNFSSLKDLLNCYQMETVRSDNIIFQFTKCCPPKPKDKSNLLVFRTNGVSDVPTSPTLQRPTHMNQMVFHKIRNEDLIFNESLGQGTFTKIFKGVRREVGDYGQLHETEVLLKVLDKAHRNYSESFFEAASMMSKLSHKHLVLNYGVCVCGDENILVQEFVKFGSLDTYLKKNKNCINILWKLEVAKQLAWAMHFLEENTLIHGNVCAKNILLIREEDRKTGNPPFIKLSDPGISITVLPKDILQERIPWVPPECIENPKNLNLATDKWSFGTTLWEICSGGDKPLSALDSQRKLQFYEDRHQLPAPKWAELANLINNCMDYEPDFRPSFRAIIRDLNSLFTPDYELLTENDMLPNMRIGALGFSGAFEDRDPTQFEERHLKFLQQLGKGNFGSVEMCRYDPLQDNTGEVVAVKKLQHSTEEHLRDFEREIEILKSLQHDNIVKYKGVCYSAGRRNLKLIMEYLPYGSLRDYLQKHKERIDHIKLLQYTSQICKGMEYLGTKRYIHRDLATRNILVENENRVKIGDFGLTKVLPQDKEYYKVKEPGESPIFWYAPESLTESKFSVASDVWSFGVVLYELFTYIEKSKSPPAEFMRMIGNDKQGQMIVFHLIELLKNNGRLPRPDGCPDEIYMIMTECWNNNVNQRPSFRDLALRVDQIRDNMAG

For the compound `CC(CO)c1ccc(Nc2nccc(-c3ccc(NC(=O)[C@@H]4CC4(F)F)cc3)n2)cn1` (stereo partly shown) [TDM-180989], the IC50 was determined as 14 nM in test [1], 13 nM in test [2], 177 nM in test [3] and 11 nM in test [4].

Regarding `Cc1cc(Nc2nccc(-c3ccc(NC(=O)[C@@H]4CC4(F)F)cc3)n2)cnc1C(N)=O` [TDM-180974], the IC50 in test [1] was determined as 8 nM; in test [2], 7 nM; in test [3] it was 346 nM; in test [4] it was 7 nM.

For the compound `Cc1cc(Nc2nccc(-c3ccc(NC(=O)[C@@H]4CC4(F)F)nc3)n2)cnc1C(N)=O` [TDM-180980, (S)-5-((4-(6-(2,2-difluorocyclopropane-1-carboxamido)pyridin-3-yl)pyrimidin-2-yl)amino)-3-methyl pyridinolineamide], the IC50 in test [1] was 18 nM; in test [2] it was 30 nM; in test [3], greater than 5000 nM; in test [4] it was 28 nM.

For the compound `CNC(=O)c1ncc(Nc2nccc(-c3ccc(NC(=O)[C@@H]4CC4(F)F)cc3)n2)cc1C` [TDM-180981], the IC50 in test [1] is 8 nM; in test [2], 8 nM; in test [3], 183 nM; in test [4] it was 8 nM.

`CCNC(=O)c1ccc(Nc2nccc(-c3ccc(NC(=O)[C@@H]4CC4(F)F)cc3)n2)cc1C` [TDM-180977, (S)-4-(4-(4-(4-(2,2-difluorocyclopropane-1-carboxamido)phenyl)pyrimidin-2-yl)amino)-N-ethyl-2-methylbenzamide]: the IC50 in test [3] was 57 nM.

On to `CNC(=O)c1ncc(Nc2nccc(-c3ccc(NC(=O)[C@@H]4CC4(F)F)nc3)n2)cc1C` [TDM-180979, (S)-5((4-(6-(2,2-difluorocyclopropane-1-carboxamido)pyridin-3-yl)pyrimidin-2-yl)amino)-N,3-dimethylpyridinolineamide], for which the IC50 in test [1] was 17 nM; in test [2], 33 nM; in test [3], 931 nM; in test [4], 25 nM.

For the compound `CCNC(=O)c1ccc(Nc2nccc(-c3ccc(NC(=O)[C@@H]4CC4(F)F)nc3)n2)cc1` [TDM-180971, (S)-4((4-(6-(2,2-difluorocyclopropane-1-formamido)pyridin-3-yl)pyrimidin-2-yl)amino)-N-ethyl benzamide], the IC50 came out at 5 nM in test [1], 7 nM in test [2], 219 nM in test [3] and 6 nM in test [4].

For the compound `CCNC(=O)c1ccc(Nc2nccc(-c3ccc(NC(=O)[C@@H]4CC4(F)F)nc3)n2)cc1C` [TDM-180984, (S)-4-((4-(6-(2,2-difluorocyclopropane-1-carboxamido)pyridin-3-yl)pyrimidin-2-yl)amino)-N-ethyl-2-methylbenzamide], the IC50 is 5 nM in test [1], 9 nM in test [2], 105 nM in test [3] and 8 nM in test [4].

Turning to `CCNC(=O)c1ccc(Nc2nccc(-c3ccc(NC(=O)[C@@H]4CC4(F)F)cc3)n2)cc1` [TDM-180972], the IC50 in test [1] stood at 5 nM; in test [2], 3 nM; in test [3] it was 117 nM; in test [4], 4 nM.

For `CC(CO)c1ccc(Nc2nccc(-c3ccc(NC(=O)[C@@H]4CC4(F)F)nc3)n2)cn1` (stereo partly shown) [TDM-180987], the IC50 in test [1] is 17 nM; in test [2] it was 22 nM; in test [3] it was 310 nM; in test [4], 25 nM.

Source of the values: patent US12643866B2, “Small molecule compound serving as JAK kinase inhibitor and use thereof” (TECHNODERMA MEDICINES, INC., priority 2020, dated 2026).
